Tested on: 772245-204-R-J1-PDC complex spheroid growth
Experiment: Anticancer human tumor 772245-204-R-J1-PDC patient-derived rhabdomyosarcoma cell line growth inhibition [Asc]
Details: for IC50: curve of first compound; for viability, T/C: stronger effect = lower value
Procedure, shortened: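 Tumor cells were grown as multicellular spheroids with stromal HUVEC and mesenchymal stem cells and treated singly or in combination. Concentrations fell in half-log steps from the clinical Cmax, or from 10 microM where none was known.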
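Also: compound exposure lasted seven days.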
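For viability, T/C in this document: 100% = DMSO vehicle control viability.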

C#Cc1c(F)ccc2cc(O)cc(-c3ncc4c(N5CC6CCC(C5)N6)nc(OCC56CCCN5CC(F)C6)nc4c3F)c12 (stereo not given) + Cc1c(S(C)(=O)=O)c(-c2cc(F)cc(N3CCN(c4ccc(NS(=O)(=O)c5ccc(NC(CCN6CCC(C(=O)OCCCP(=O)(O)O)CC6)CSc6ccccc6)c(S(=O)(=O)C(F)(F)F)c5)cc4)CC3)c2)c(-c2ccc(Cl)cc2)n1C(C)C
IC50 (second compound 0.1 µM): 9710 nM
IC50 (second compound 0.316 µM): 2030 nM
IC50 (second compound 1 µM): 3740 nM
IC50 (second compound 3.16 µM): < 31.6 nM
IC50 (second compound 10 µM): 1030 nM
viability, T/C (second compound 0.1 µM, first compound 0.0316 µM): 72.8%
viability, T/C (second compound 0.1 µM, first compound 0.1 µM): 93.2%
viability, T/C (second compound 0.1 µM, first compound 0.316 µM): 85.6%
viability, T/C (second compound 0.1 µM, first compound 1 µM): 71.6%
viability, T/C (second compound 0.1 µM, first compound 3.16 µM): 72.7%
viability, T/C (second compound 0.1 µM, first compound 10 µM): 49%
viability, T/C (second compound 0.316 µM, first compound 0.0316 µM): 60.4%
viability, T/C (second compound 0.316 µM, first compound 0.1 µM): 66.2%
viability, T/C (second compound 0.316 µM, first compound 0.316 µM): 62.3%
viability, T/C (second compound 0.316 µM, first compound 1 µM): 56%
viability, T/C (second compound 0.316 µM, first compound 3.16 µM): 46.3%
viability, T/C (second compound 0.316 µM, first compound 10 µM): 38.2%
viability, T/C (second compound 1 µM, first compound 0.0316 µM): 49.8%
viability, T/C (second compound 1 µM, first compound 0.1 µM): 55.4%
viability, T/C (second compound 1 µM, first compound 0.316 µM): 51.5%
viability, T/C (second compound 1 µM, first compound 1 µM): 56.8%
viability, T/C (second compound 1 µM, first compound 3.16 µM): 54.1%
viability, T/C (second compound 1 µM, first compound 10 µM): 29.7%
viability, T/C (second compound 3.16 µM, first compound 0.0316 µM): 49.8%
viability, T/C (second compound 3.16 µM, first compound 0.1 µM): 46.7%
viability, T/C (second compound 3.16 µM, first compound 0.316 µM): 47.1%
viability, T/C (second compound 3.16 µM, first compound 1 µM): 37%
viability, T/C (second compound 3.16 µM, first compound 3.16 µM): 30.7%
viability, T/C (second compound 3.16 µM, first compound 10 µM): 13.8%
viability, T/C (second compound 10 µM, first compound 0.0316 µM): 44%
viability, T/C (second compound 10 µM, first compound 0.1 µM): 55.5%
viability, T/C (second compound 10 µM, first compound 0.316 µM): 44%
viability, T/C (second compound 10 µM, first compound 1 µM): 58.3%
viability, T/C (second compound 10 µM, first compound 3.16 µM): 34%
viability, T/C (second compound 10 µM, first compound 10 µM): 18.5%

Cc1nc(N2CCC3(CC2)COC(C)C3N)c(CO)nc1Sc1ccnc(N)c1Cl (stereo not given) + Cc1c(S(C)(=O)=O)c(-c2cc(F)cc(N3CCN(c4ccc(NS(=O)(=O)c5ccc(NC(CCN6CCC(C(=O)OCCCP(=O)(O)O)CC6)CSc6ccccc6)c(S(=O)(=O)C(F)(F)F)c5)cc4)CC3)c2)c(-c2ccc(Cl)cc2)n1C(C)C
IC50 (second compound 0.1 µM): 2230 nM
IC50 (second compound 0.316 µM): 644 nM
IC50 (second compound 1 µM): 369 nM
IC50 (second compound 3.16 µM): 86.2 nM
IC50 (second compound 10 µM): 444 nM
viability, T/C (second compound 0.1 µM, first compound 0.00949 µM): 90.3%
viability, T/C (second compound 0.1 µM, first compound 0.03 µM): 90.2%
viability, T/C (second compound 0.1 µM, first compound 0.0949 µM): 85%
viability, T/C (second compound 0.1 µM, first compound 0.3 µM): 71%
viability, T/C (second compound 0.1 µM, first compound 0.949 µM): 63.7%
viability, T/C (second compound 0.1 µM, first compound 3 µM): 45.4%
viability, T/C (second compound 0.316 µM, first compound 0.00949 µM): 72.6%
viability, T/C (second compound 0.316 µM, first compound 0.03 µM): 76.3%
viability, T/C (second compound 0.316 µM, first compound 0.0949 µM): 70.9%
viability, T/C (second compound 0.316 µM, first compound 0.3 µM): 57%
viability, T/C (second compound 0.316 µM, first compound 0.949 µM): 46.8%
viability, T/C (second compound 0.316 µM, first compound 3 µM): 31.2%
viability, T/C (second compound 1 µM, first compound 0.00949 µM): 47.4%
viability, T/C (second compound 1 µM, first compound 0.03 µM): 63.7%
viability, T/C (second compound 1 µM, first compound 0.0949 µM): 68.6%
viability, T/C (second compound 1 µM, first compound 0.3 µM): 47.9%
viability, T/C (second compound 1 µM, first compound 0.949 µM): 38.3%
viability, T/C (second compound 1 µM, first compound 3 µM): 20.3%
viability, T/C (second compound 3.16 µM, first compound 0.00949 µM): 60.9%
viability, T/C (second compound 3.16 µM, first compound 0.03 µM): 49.7%
viability, T/C (second compound 3.16 µM, first compound 0.0949 µM): 54.9%
viability, T/C (second compound 3.16 µM, first compound 0.3 µM): 37.9%
viability, T/C (second compound 3.16 µM, first compound 0.949 µM): 32.4%
viability, T/C (second compound 3.16 µM, first compound 3 µM): 14.5%
viability, T/C (second compound 10 µM, first compound 0.00949 µM): 52.1%
viability, T/C (second compound 10 µM, first compound 0.03 µM): 61.2%
viability, T/C (second compound 10 µM, first compound 0.0949 µM): 60.9%
viability, T/C (second compound 10 µM, first compound 0.3 µM): 55.4%
viability, T/C (second compound 10 µM, first compound 0.949 µM): 38.7%
viability, T/C (second compound 10 µM, first compound 3 µM): 16.4%

Reference: PubChem BioAssay AID1963433 (Molecular Pharmacology Branch, DTP, NCI, 2024)
